We go through one compound from patent US9872840B2, “Effect of garcinol in delaying the progression of diabetic nephropathy” (Delhi Institute of Pharmaceutical Sciences and Research, priority 2013, dated 2018).

Experiment [1] deals with STZ diabetic rats. Description: DNA fragmentation assay (TUNEL) for apoptosis in kidney. The format is in vivo, rat. On the procedure: For detection and localization of apoptosis in kidney, the technique of terminal deoxynucleotidyl transferase-mediated dUTP nick end labeling (TUNEL) (Apo-BrdU-IHC™ In Situ DNA Fragmentation Assay Kit, Biovison, USA) were employed. Briefly, sections were deparaffinized, hydrated, and digested with proteinase K (20 μg/ml), and then added biotinylated dUTP to the 3′ end of DNA fragments by incubating sections in 0.05 mol/l Tris-HCl buffer (pH 7.6) with 0.03 U/μl TdT and 0.04 nmol/μl biotin-11-dUTP at 37° C. for 1 h. The sections were rinsed in PBS. Endogenous peroxidase was blocked with 0.3% H2O2 in distilled H2O. The sections were rinsed with PBS and covers with 2% blocking solution in 0.1 mol/l sodium maleate to reduce background staining. The sections were then incubated with avidin-peroxidase complexes in PBS (1:50) for 30 min and rinsed with PBS (3×5 min). Peroxidase activity was visualized with 3,3′-diaminobenzidine until the brown product was clearly visible. The sections were then counterstained with methyl green. The positive apoptotic cells were the cells with brown nucleus 2.10.

Experiment [2] deals with rat nephrin. Description: Immunohistochemistry for nephrin in kidney. The format is in vivo. The following applies: kidney of STZ diabetic rats, 8 weeks; garcinol 200 mg/kg, olmesartan 6 mg/kg, glimepiride 1 mg/kg. On the procedure: Immunohistochemistry was done as previously described according to a modified method using a Polyclonal (C-Terminus) Antibody which is identical to rat nephrin. These experiments were done using 4 micron […] kidney sections, as previously reported. Paraffin-embedded tissues sections were deparaffinized in microwave oven for 3 minutes. The sections were rehydrated in graded series of xylene and alcohols. Endogenous peroxidase activity was blocked by 3% hydrogen peroxide in distilled water for 15 minutes. Antigen retrieval was achieved by steam heating in a solution of citrate buffer, pH 6.0 for 30 minutes. Sections were blocked with 10% normal goat serum for polyclonal antibodies. Sections were then incubated for one hour with primary antibody Polyclonal (C-Terminus) Antibody which is identical to rat nephrin. The sections were then incubated in avidin-biotin complex at 1:25 dilution for 30 min at room temperature and developed using diaminobenzidine (DAB) as chromogen. After washing, the sections were counter-stained with hematoxylin and coverslipped. Negative controls were carried out by incubation in the absence of the primary antibody. The quantification of nephrin was done using point counting technique for each animal as described in established method. Davis B J, Johnston C I, Burrell, L M, Burns W C, Kubota E, Cao Z, Cooper M E, Allen T J. Renoprotective effects of vasopeptidase inhibition in an experimental model of diabetic nephropathy. Diabetologia. 2003; 46(7): 961-71.

In experiment [3] the test system is STZ diabetic rats. Description: Tubulointerstitial matrix index (Masson's trichrome). The format is in vivo, rat. To be noted: kidney of STZ diabetic rats, 8 weeks; semi-quantified; garcinol 200 mg/kg, olmesartan 6 mg/kg, glimepiride 1 mg/kg. How it is done: (§1) Kidney sections were stained with periodic acid-Schiff's reagent and Masson's modified trichrome to assess glomerulosclerosis and collagenous tubulointerstitial matrix, respectively.
The accumulation of matrix within the tubulointerstitial was assessed on Masson's trichrome stained sections. Blue area on a trichrome-stained section was selected for its color range and the proportional area of tissue with this range of color was then semi-quantified as tubulointerstitial matrix index (TIMI).

Experiment [4] concerns STZ diabetic rats. Description: Kidney histopathology, glomerulosclerotic index (periodic acid-Schiff). To be noted: kidney of STZ diabetic rats, 8 weeks; sclerosis graded 0 to 4; garcinol 200 mg/kg, olmesartan 6 mg/kg, glimepiride 1 mg/kg. The format is in vivo, rat.
Source text: as §1
In 4 μm kidney sections stained with periodic acid-Schiff's reagent, 150 glomeruli from each animal were examined. The extent of sclerosis in each glomerulus was subjectively graded on a scale of 0 to 4, with the following grades: grade 0 normal, grade 1 sclerotic area <25% (minimal), grade 2 sclerotic area 25-50% (moderate), grade 3 sclerotic area 50-75% (moderate to severe) and grade 4 sclerotic area 75-100% (severe). A glomerulosclerotic index was then calculated using the formula: […]
Where GSI is glomerulosclerotic index, Fi is the % of glomeruli in the rat with a given score (i).

Experiment [5] has as its system STZ diabetic rats. Kind of experiment: Fasting and post prandial blood glucose in STZ diabetic rats. The format is in vivo, rat. On the set-up: Reduction of post prandial glucose: concentration or dose not given beside the values. How it is done: The Garcinol used for the experimental studies was bought from Sami Labs, Hyderabad. It was administered at the dose of 200 mg/kg dispersed in water with 1% CMC. Further, the experimental procedures were conducted according to the Institutional Animal Ethical Committee (protocol no. DIPSAR/IAEC/2009/01) and CPCSEA guidelines. All rats were housed under conventional conditions with controlled temperature, humidity and light (12 hours light-dark cycle), and were provided with a standard commercial diet and water (ad libitum). Healthy albino rats of Wistar strain were kept for breeding. Diabetes was induced by administration of streptozotocin (STZ, 90 mg/kg, i.p.) to a group of 2 day old pups. Age-matched control rats were given an equal volume of vehicle and considered as ‘Normal’ group of rats. Six weeks after injection, the blood glucose level was measured from the tail vein. Rats with a fasting blood glucose level over 160 mg/dl were considered as diabetic.
After 6 weeks, four groups of animals, each comprising of 8 animals were made. The groups were assigned to receive vehicle or garcinol (200 mg/kg dispersed in 1% CMC); Olmesartan (6 mg/kg/day) and Glimepiride (1 mg/kg/day) once daily for 8 weeks. After the final drug administration, body weight was measured and blood samples were collected in both fasting and post prandial conditions. The kidney of treated and untreated animals were isolated and fixed in 10% buffered formalin solution to prepare paraffin sections.
However, the decrease was less than antidiabetic reference glimepiride treatment (˜27%). Moreover, the reduction of post prandial glucose with garcinol treatment (˜36%) was more than olmesartan (˜10%) but was lower than observed with glimepiride treatment (almost 43%) when compared to diabetic group.

Experiment [6] has as its system glucose transporter 4 (GLUT4). Kind of experiment: GLUT-4 protein expression in soleus muscle of diabetic rats (Western blot). To be noted: 8 weeks treatment, FIG. 3. The experiment is classed as in vivo, rat. On the procedure:
For determination of glucose transporter 2 (GLUT2) protein expressions in liver and glucose transporter 4 (GLUT4) protein expressions in skeletal muscle; each sample prepared was mixed with 1% sodium dodecyl sulfate and 50 mM dithiothreitol, and the mixture was subjected to electrophoresis with 10% polyacrylamide gel. The separated proteins on the gel were electrotransferred to a polyvinylidene difluoride membrane. After blocking with 5% skim milk solution including 0.05% Poly (Oxyethylene) sorbitan monolaurate (Tween 20) overnight at 4° C., the membrane was reacted with anti-GLUT-2 antibody (Abcam, UK) & anti-GLUT-4 antibody (Abcam, UK) for 2 h. Subsequently, it was incubated with horseradish peroxidase conjugated IgG (diluted 1:2000) [Jackson immunoresearch laboratories, USA] for 2 h at room temperature (Western Blot). Reduced qualitative expression of GLUT2 and GLUT 4 in liver and muscle respectively of diabetic rats were improved with the garcinol treatment (FIG. 3), which were better than observed with olmesartan.
A general note: In western blotting, separated proteins are transferred to a membrane and probed.

Setting [7] is: baseline before treatment, mean ± S.E.M., eight animals.
The mark [8] stands for this setting: once daily for 8 weeks, garcinol 200 mg/kg, olmesartan 6 mg/kg/day, glimepiride 1 mg/kg/day, mean ± S.E.M., eight animals.

Molecules are shown by their SMILES.

The compound `CCC1=C(C)CN(C(=O)NCCc2ccc(S(=O)(=O)NC(=O)N[C@H]3CC[C@H](C)CC3)cc2)C1=O` [Glimepiride, glimepiride] came in with an Apoptosis in experiment [1] (kidney of STZ diabetic rats, 8 weeks, garcinol 200 mg/kg, olmesartan 6 mg/kg, glimepiride 1 mg/kg) of 90 % FA. In experiment [1] (kidney of diabetic rats, FIG. 4), the “DNA fragmentation / apoptosis in kidney (qualitative)” value is given as “no change in the decrease in apoptosis”. The Nephrin in experiment [2] stood at 20 % FA. Also, in experiment [3], the “TIMI (tubulointerstitial matrix index)” value stood at 2. For the same compound, the “GSI (glomerulosclerotic index)” value in experiment [4] is 2.8. In addition, the “Reduction of fasting blood glucose” value in experiment [5] (8 weeks treatment) is roughly 27%. In addition, the “Reduction of post prandial glucose” value in experiment [5] (8 weeks treatment, compared to diabetic group) is recorded as roughly 43%. In experiment [5] (setting [7]), the “Blood glucose, fasting, before treatment” value amounted to 165.2 ± 1.5 mg/dL and the “Blood glucose, post prandial, before treatment” value turned out to be 308 ± 4.98 mg/dL. In addition, in experiment [5] (setting [8]), the “Blood glucose, fasting, after treatment” value was determined as 119.2 ± 5.4 mg/dL and the “Blood glucose, post prandial, after treatment” value is 174 ± 3.75 mg/dL. In addition, in experiment [6], the “Qualitative expression of GLUT 4 in muscle” value is on record as “did not show any improvement”.
